In ChEMBL document CHEMBL4706768, “Discovery of Potent, Selective Triazolothiadiazole-Containing c-Met Inhibitors” (ACS Med Chem Lett, 2021):

Key:
[1] = target: Tyrosine-protein kinase Lck (Homo sapiens) (UniProt P06239); assay: Inhibition of recombinant human full-length N-terminal His6-tagged LCK expressed in baculovirus infected Sf21 insect cells at 2 uM relative to control
[2] = target: Serine/threonine-protein kinase N2 (Homo sapiens) (UniProt Q16513); assay: Inhibition of PRK2 (unknown origin) at 2 uM relative to control
Sequence of Serine/threonine-protein kinase N2 (Homo sapiens) (Q16513 whole entry, looked up): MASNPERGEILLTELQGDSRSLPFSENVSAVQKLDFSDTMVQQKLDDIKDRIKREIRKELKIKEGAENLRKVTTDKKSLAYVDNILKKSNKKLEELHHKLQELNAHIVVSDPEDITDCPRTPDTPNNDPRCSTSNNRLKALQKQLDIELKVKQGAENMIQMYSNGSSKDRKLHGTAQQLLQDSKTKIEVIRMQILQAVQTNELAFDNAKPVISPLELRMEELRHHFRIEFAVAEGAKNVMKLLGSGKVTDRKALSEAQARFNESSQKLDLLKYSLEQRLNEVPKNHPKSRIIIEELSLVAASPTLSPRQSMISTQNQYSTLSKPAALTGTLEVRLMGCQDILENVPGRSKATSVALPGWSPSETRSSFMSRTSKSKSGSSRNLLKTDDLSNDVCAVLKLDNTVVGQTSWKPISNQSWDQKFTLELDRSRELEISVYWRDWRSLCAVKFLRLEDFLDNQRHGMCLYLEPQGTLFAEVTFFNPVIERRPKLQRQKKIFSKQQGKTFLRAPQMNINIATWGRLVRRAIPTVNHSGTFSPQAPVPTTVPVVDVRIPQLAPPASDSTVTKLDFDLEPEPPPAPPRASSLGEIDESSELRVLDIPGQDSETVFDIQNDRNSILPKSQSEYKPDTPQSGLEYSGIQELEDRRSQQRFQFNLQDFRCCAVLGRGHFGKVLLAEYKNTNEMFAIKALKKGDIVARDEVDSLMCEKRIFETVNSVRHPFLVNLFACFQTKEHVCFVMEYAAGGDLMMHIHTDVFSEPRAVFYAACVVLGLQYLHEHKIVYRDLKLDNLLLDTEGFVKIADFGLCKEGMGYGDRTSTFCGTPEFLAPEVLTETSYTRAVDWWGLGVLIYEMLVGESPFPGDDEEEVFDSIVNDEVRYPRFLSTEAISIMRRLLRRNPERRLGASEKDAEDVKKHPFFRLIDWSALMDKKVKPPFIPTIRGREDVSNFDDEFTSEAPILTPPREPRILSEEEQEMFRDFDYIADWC

[3] = target: Platelet-derived growth factor receptor alpha (Homo sapiens) (UniProt P16234); assay: Inhibition of recombinant human N-terminal His6-tagged PDGFRalpha (550 to end residues) expressed in baculovirus infected Sf21 insect cells at 2 uM using poly (Glu4-Tyr) (4:1) as substrate relative to control
Sequence of Platelet-derived growth factor receptor alpha (Homo sapiens) (P16234 whole entry, the tested form may be a part): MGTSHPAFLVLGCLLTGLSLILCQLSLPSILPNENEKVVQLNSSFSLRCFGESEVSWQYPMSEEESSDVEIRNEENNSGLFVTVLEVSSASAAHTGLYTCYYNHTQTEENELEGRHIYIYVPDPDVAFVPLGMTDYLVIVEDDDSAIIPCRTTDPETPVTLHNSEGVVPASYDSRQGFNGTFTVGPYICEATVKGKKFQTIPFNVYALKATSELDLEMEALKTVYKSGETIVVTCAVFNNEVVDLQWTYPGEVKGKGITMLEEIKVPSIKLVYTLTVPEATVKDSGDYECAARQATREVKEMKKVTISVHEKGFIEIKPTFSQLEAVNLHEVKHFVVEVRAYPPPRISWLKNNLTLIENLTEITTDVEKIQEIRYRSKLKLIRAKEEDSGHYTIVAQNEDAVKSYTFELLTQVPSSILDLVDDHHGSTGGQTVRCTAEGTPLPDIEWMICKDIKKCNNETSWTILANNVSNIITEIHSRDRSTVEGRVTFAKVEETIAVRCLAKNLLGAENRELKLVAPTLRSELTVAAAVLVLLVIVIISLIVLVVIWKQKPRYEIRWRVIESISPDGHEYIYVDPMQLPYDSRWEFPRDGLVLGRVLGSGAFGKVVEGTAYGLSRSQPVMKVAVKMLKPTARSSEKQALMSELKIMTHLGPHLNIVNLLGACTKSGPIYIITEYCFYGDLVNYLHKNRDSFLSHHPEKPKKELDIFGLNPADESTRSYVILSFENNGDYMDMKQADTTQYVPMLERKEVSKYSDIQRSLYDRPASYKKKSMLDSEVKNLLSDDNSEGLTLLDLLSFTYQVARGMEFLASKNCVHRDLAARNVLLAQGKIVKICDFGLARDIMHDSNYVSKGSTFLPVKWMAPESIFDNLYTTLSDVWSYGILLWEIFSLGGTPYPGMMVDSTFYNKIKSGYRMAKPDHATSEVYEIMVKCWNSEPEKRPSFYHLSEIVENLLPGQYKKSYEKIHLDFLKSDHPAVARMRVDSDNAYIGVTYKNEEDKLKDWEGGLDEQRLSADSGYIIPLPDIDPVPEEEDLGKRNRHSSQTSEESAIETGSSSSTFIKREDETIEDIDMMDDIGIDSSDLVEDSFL

[4] = target: Rho-associated protein kinase 2 (Homo sapiens) (UniProt O75116); assay: Inhibition of recombinant human N-terminal GST-tagged ROCK2 (5 to 554 residues) expressed in baculovirus infected Spodoptera frugiperda insect cells at 2 uM using KRRRLASLR as substrate relative to control
Sequence of Rho-associated protein kinase 2 (Homo sapiens) (O75116 whole entry, looked up, the tested form may be a part): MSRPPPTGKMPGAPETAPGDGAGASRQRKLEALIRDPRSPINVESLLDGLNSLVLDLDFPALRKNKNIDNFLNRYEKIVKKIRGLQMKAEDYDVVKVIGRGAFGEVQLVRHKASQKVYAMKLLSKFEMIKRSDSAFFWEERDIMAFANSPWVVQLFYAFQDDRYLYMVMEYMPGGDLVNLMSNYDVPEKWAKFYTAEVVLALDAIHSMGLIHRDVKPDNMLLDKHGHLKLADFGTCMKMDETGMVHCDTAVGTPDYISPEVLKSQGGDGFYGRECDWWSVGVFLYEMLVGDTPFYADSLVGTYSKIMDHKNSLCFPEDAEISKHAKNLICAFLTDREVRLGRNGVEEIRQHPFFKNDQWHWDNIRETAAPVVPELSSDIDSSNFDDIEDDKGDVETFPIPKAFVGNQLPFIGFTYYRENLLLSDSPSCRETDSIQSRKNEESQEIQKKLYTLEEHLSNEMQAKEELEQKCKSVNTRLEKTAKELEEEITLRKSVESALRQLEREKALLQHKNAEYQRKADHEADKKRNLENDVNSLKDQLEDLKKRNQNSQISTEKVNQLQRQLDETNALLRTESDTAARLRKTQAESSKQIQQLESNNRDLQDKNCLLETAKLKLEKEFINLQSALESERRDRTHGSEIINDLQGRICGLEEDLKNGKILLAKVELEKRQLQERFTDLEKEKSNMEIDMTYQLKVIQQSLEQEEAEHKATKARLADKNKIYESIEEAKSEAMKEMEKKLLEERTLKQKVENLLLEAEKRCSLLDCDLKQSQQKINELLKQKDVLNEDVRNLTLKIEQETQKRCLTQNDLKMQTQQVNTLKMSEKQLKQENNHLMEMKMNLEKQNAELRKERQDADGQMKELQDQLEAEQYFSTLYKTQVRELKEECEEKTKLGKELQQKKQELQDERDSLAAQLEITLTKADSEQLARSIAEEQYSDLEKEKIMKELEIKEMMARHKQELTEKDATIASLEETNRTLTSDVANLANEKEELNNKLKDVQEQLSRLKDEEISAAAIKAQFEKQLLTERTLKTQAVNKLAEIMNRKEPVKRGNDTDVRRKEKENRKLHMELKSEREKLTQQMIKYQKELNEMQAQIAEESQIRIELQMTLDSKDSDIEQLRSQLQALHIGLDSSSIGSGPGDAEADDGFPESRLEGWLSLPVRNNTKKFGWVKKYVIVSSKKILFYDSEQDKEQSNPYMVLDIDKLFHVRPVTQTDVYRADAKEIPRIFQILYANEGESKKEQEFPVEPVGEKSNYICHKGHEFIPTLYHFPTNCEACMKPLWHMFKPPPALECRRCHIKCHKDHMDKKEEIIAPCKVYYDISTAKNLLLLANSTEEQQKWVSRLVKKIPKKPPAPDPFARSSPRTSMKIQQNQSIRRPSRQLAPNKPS

Measured: inhibition

Sequence of Tyrosine-protein kinase Lck (Homo sapiens) (P06239 2-509 limits assumed): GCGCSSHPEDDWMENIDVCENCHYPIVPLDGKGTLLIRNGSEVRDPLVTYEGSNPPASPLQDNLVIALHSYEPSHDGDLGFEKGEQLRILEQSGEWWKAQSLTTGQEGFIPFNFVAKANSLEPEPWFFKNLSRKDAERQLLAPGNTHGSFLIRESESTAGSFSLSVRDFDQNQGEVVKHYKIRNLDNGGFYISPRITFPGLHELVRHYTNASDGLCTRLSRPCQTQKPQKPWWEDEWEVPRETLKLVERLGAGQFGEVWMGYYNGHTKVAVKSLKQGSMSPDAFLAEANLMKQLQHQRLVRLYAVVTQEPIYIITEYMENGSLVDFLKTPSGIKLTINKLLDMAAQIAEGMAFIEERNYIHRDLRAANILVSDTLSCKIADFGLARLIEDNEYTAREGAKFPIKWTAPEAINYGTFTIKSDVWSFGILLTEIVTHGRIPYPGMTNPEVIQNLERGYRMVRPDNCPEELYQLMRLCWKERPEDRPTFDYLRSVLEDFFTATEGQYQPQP

C[C@@H](c1ccc2ncccc2c1)c1nnc2sc(-c3cnn(C)c3)nn12
< 50%: all assays above
